{"source": "patent US20140302515A1", "about": "“BIOMARKERS FOR BREAST CANCER PATIENTS” (TUSKEGEE UNIVERSITY, priority 2010, published 2014)", "format_in_all_cases": "cell-based", "key": {"[1]": {"system": "EGFR", "assay": "EGFR kinase inhibitor treatment, with or without EGF: Kaiso expression levels and nuclear staining", "method": "Next, steps were taken to determine if EGFR signaling was involved in increasing Kaiso levels and/or cytoplasmic to nuclear trans-localization of Kaiso. All three cell lines were treated with EGF (10 ng/ml) over increasing time intervals of 30 minutes, 1 hour, and 24 hours. […] To determine the specificity of EGFR activity on Kaiso expression levels, an EGFR specific kinase inhibitor, PD153035, was also utilized in the presence or absence of EGF treatment."}, "[2]": {"system": "Kaiso", "assay": "EGF treatment: Kaiso mRNA and protein levels by real-time RT-PCR and immunoblot", "method": "Unless otherwise herein described, growth factors, such as recombinant human epidermal growth factor (“EGF”), were obtained commercially and was added to serum free media of DMEM and T-media with antibiotics.\nSince EGFR over-expressing DU-145WT cells express higher levels of Kaiso than the original DU-145 cells, experiments were further conducted to determine if EGFR signaling would have a direct effect on Kaiso localization and/or expression in prostate cancer cells. As an initial experiment, a dose dependent treatment of EGF consisting of 10, 50 and 100 ng/ml was performed."}, "[3]": {"system": "Kaiso", "assay": "EGF treatment: Kaiso nuclear localization by immunofluorescence and subcellular fractionation", "settings": "EGF 10 ng/ml; from 30 minutes to 24 hour; immunofluorescence; DU-145, DU-145WT, PC-3", "method": "Unless otherwise set forth herein, immunofluorescence studies comprised plating cells on a 4-chamber slide with 20000 cells. After treatment, they were then washed with PBS, fixed for 30 minutes with cold methanol at room temperature, incubated at room temperature with Lysis Buffer containing 0.1 M Tris, 0.15M NaCl, 0.01 M EGTA, 1% Triton and 1 mM PMSF, blocked for 30 mins in 5% BSA dissolved in PBS, treated with primary antibody (1:100) overnight in the cold room. Cells were stained for p120^ctn and Kaiso.\nNext, steps were taken to determine if EGFR signaling was involved in increasing Kaiso levels and/or cytoplasmic to nuclear trans-localization of Kaiso. All three cell lines were treated with EGF (10 ng/ml) over increasing time intervals of 30 minutes, 1 hour, and 24 hours. […] A key finding within DU-145 cells that lack nuclear Kaiso expression was the observation of a predominant Kaiso nuclear staining. […] To determine the specificity of EGFR activity on Kaiso expression levels, an EGFR specific kinase inhibitor, PD153035, was also utilized in the presence or absence of EGF treatment."}, "[4]": {"system": "p120^ctn", "assay": "EGF stimulation: p120ctn tyrosine residues Y228, Y96, Y291", "settings": "after 24 hours, DU-145 and DU-145WT", "method": "Previous reports have observed that p120^ctn has a specific kinase activity for EGFR on tyrosine residue Y228. Additionally, p120^ctn is a known binding partner for Kaiso. Therefore, experiments were conducted determine whether this was apparent in prostate cancer cell lines as well. Given that p120^ctn has multiple tyrosine residues, including Y228, Y96, Y291, located within the regulator domain, the effect of EGF stimulation on each of these residues was studied. […] It was observed by immunofluorescence that Y228 expression remained cytosolic after 24 hours of EGF treatment."}}, "data": [{"compound": "COc1cc2ncnc(Nc3cccc(Br)c3)c2cc1OC", "note": "[PD153035]", "values": [{"measurement": "Kaiso expression levels", "setting": "[1]; 500 nM", "result": "significantly reduced"}, {"measurement": "nuclear Kaiso staining", "setting": "[1]; DU-145 and PC-3 cells", "result": "lack of nuclear Kaiso staining"}, {"measurement": "EGF induced increases in Kaiso levels", "setting": "[1]; pre-treatment before EGF, DU-145 and PC-3 cells", "result": "completely blocked"}]}, {"compound": "EGF: recombinant human epidermal growth factor, obtained commercially", "values": [{"measurement": "increase in Kaiso mRNA and protein levels", "setting": "[2]; EGF 10 ng/ml (lowest of 10, 50, 100 ng/ml), real-time RT-PCR and immunoblot", "result": "At least a two-fold increase"}, {"measurement": "Kaiso increases", "setting": "[2]; EGF 10 ng/ml, 24 hour period, EGFR over-expressing DU145WT cells", "result": 4, "unit": "fold"}, {"measurement": "Kaiso increases at RNA and protein levels", "setting": "[2]; EGF 10 ng/ml, over 24 hour period, DU-145 and PC-3 cells", "result": "incremental Kaiso increases"}, {"measurement": "nuclear accumulation of Kaiso", "setting": "[3]", "result": "Visible nuclear accumulation of Kaiso"}, {"measurement": "expression of p120ctn Y228 (versus Y96 and Y291)", "setting": "[4]", "result": "induced the specific increased expression of Y228"}]}]}
